This note sets out measurements from the Deep4Chem optical property database.

A short description of the series: photoluminescence quantum yield (fraction); solvent given as SMILES.
Setting [1] is: in O=P(c1ccccc1)(c1ccccc1)c1ccccc1Oc1ccccc1P(=O)(c1ccccc1)c1ccccc1.

As to `CCN(CC)c1ccc2cc(-c3nc4cc(C(=O)Nc5ccccc5)ccc4o3)c(=O)oc2c1`, the photoluminescence quantum yield (in ClCCl) was determined as 0.35.

As for `CC1=CC(C)=[N+]2C1=C(c1ccc3cccnc3n1)c1c(C)cc(C)n1[B-]2(F)F`, the photoluminescence quantum yield (in CC#N) is 0.04; the photoluminescence quantum yield (in CCCCCC) was found to be 0.08; the photoluminescence quantum yield (in CO) stood at 0.16; the photoluminescence quantum yield (in ClC(Cl)Cl) came out at 0.07; the photoluminescence quantum yield (in ClCCl) is 0.06.

As for `COc1cc(/C=C/C(=O)O)ccc1O`, for the setting “in O”, the photoluminescence quantum yield worked out at 0.002.

On to `c1ccc(N(c2ccccc2)c2ccccc2)cc1`, for which the photoluminescence quantum yield (in CCO) is 0.03.

With `C[Si](C)(C)C#CC(C#C[Si](C)(C)C)=Cc1ccc(C=C(C#C[Si](C)(C)C)C#C[Si](C)(C)C)s1`, the photoluminescence quantum yield (in ClC(Cl)Cl) was 0.01.

With `O=c1c2ccccc2c2c3c(cccc13)c(-c1ccccc1)c1c3cccc4cccc(c43)c12`, the photoluminescence quantum yield runs as follows: (in CC#N) 0.91; (in CO) 0.97.

`COCCOCCOCCOCC(COCCOCCOCCOC)Oc1cc(/C=C/c2ccc(/C=C(\C#N)c3ccncc3)cc2)c(OC(COCCOCCOCCOC)COCCOCCOCCOC)cc1/C=C/c1ccc(/C=C(\C#N)c2ccncc2)cc1` returned a photoluminescence quantum yield (in ClCCl) of 0.45.

Take `COc1ccc(-n2nc(C(=O)N3CCCC3)c(N3CCCC3)n2)cc1`: the photoluminescence quantum yield (in CC#N) is 0.555; the photoluminescence quantum yield (in CCCCCC) worked out at 0.94; the photoluminescence quantum yield (in CCO) was determined as 0.9; the photoluminescence quantum yield (in CN(C)C=O) was 0.77; the photoluminescence quantum yield (in ClC(Cl)Cl) was 0.64.

`CCc1c(C)c2n(c1C)[B-](F)(F)[N+]1=C(C=C3c4ccccc4-c4ccccc43)C=CC1=C2C` yielded a photoluminescence quantum yield (in C1CCCCC1) of 0.73.

For the compound `O=c1c2ccccc2n2c3ccccc3c(=O)c3cccc1c32`, the photoluminescence quantum yield (in c1cc(-n2c3ccccc3c3ccccc32)cc(-n2c3ccccc3c3ccccc32)c1) came to 0.724.

The compound `CC1(C)c2ccccc2N(c2ccccc2)c2ccc(-c3ccc(-c4ccc5c(c4)C(C)(C)c4ccccc4N5c4ccccc4)c4nsnc34)cc21` showed a photoluminescence quantum yield (in c1ccc2c(c1)c1ccccc1n2-c1ccc(-c2ccc(-n3c4ccccc4c4ccccc43)cc2)cc1) of 0.92.

For the setting “in CO”, `C#CCOc1ccc(/C=C/C2=[N+]3C(=C(c4ccc(N(C)C)cc4)c4c(C)cc(C)n4[B-]3(F)F)C(C)=C2)cc1` gave a photoluminescence quantum yield of 0.66.

The compound `COc1ccc(-c2nc3ccccc3nc2-c2ccc(OC)cc2)cc1` came in with a photoluminescence quantum yield (in ClC(Cl)Cl) of 0.18.

Regarding `CCC1=C(C)C2=C(c3c4ccccc4cc4ccccc34)c3c(C)c(CC)c(C)n3[B-](F)(F)[N+]2=C1C`, the photoluminescence quantum yield is, setting by setting: (in CC#N) 0.579; (in CCCCCC) 0.871; (in CCO) 0.778; (in CN(C)C=O) 0.705; (in Cc1ccccc1) 0.806; (in ClCCl) 0.799.

Compound `Cc1ccc(C2=C(c3ccc(C)cc3)c3cccc4c3c(cc3nc5ccccc5nc34)O2)cc1` yielded a photoluminescence quantum yield (in ClCCl) of 0.43.

In turn, `COc1ccc(-c2nc(-c3cccc(OC)c3)[nH]c2-c2ccc(OC)cc2)cc1` yielded a photoluminescence quantum yield (in CO) of 0.25.

In turn, `CN(C)c1ccc(/C=C/c2ncccn2)cc1` came in with a photoluminescence quantum yield (in ClCCl) of 0.01.

For the compound `CCN(CC)c1ccc(C=Cc2nc3nc4ccccc4nc3s2)cc1`, the photoluminescence quantum yield (in CCO) is 0.36.

`CCCN1c2ccccc2Sc2cc(/C=C\c3cc(=O)oc4ccccc34)ccc21`: for the setting “in ClC(Cl)Cl”, the photoluminescence quantum yield was found to be 0.5.

Consider `CCCCCCC(CCCCCC)N1C(=O)c2cccc3c(-c4ccc(OC)c5ccccc45)ccc(c23)C1=O`, for which the photoluminescence quantum yield (in CCCCCC) was found to be 0.33; the photoluminescence quantum yield (in CCCCCCCCCCCCCC) is 0.34; the photoluminescence quantum yield (in CCCCCCCCCCCO) is 0.23; the photoluminescence quantum yield (in CCCCO) is 0.088; the photoluminescence quantum yield (in CN(C)C=O) turned out to be 0.13; the photoluminescence quantum yield (in Cc1ccccc1) amounted to 0.18. The compound also showed a photoluminescence quantum yield (in ClC(Cl)Cl) of 0.39.

Turning to `NS(=O)(=O)c1ccc(N2N=C(c3ccc(O)cc3)CC2c2ccc(Cl)cc2)cc1` (configuration not stated), the photoluminescence quantum yield stood at 0.68 (in C1CCOC1); 0.72 (in C1COCCO1); 0.65 (in CC#N); 0.53 (in CC(C)O); 0.44 (in CCO); 0.72 (in CCOC(C)=O). Also, the photoluminescence quantum yield amounted to 0.71 (in CN(C)C=O), 0.36 (in CO), 0.75 (in CS(C)=O) and 0.56 (in O).

`c1ccc(-c2nc(-c3ccccc3)nc(-n3c4ccccc4c4cc(-n5c6ccccc6c6ccccc65)ccc43)n2)cc1`: the photoluminescence quantum yield under setting [1] came to 0.62.

`CC(=O)c1c2c(cc3ccc(N(C)C)cc13)CCC2` returned a photoluminescence quantum yield (in C1CCCCC1) of 0.45; a photoluminescence quantum yield (in C1CCOC1) of 0.75; a photoluminescence quantum yield (in C1COCCO1) of 0.46; a photoluminescence quantum yield (in CC#N) of 0.99; a photoluminescence quantum yield (in CCO) of 0.05; a photoluminescence quantum yield (in CS(C)=O) of 0.85. In addition, the photoluminescence quantum yield is 0.62 (in Cc1ccccc1), 0.77 (in ClC(Cl)Cl) and 0.99 (in ClCCl).

The compound `N#Cc1ccc(C#Cc2ccc(C#Cc3ccccc3C#N)cc2C#N)cc1` yielded a photoluminescence quantum yield (in ClC(Cl)Cl) of 0.783.

`c1ccc(C2c3ccccc3-c3cc4c(cc32)-c2ccccc2C4c2ccccc2)cc1` (configuration not stated) showed a photoluminescence quantum yield (in ClCCl) of 0.36.

`Cc1nc2c(ccc3c2sc(/C=C/c2ccc(N(C)C)cc2)[n+]3C)s1` gave a photoluminescence quantum yield (in ClC(Cl)Cl) of 0.02.

`CCCCCCCCCCCCOc1cc2c(cc1OCCCCCCCCCCCC)C1=C3C(=O)N4C=Cc5cc(OCCCCCCCCCCCC)c(OCCCCCCCCCCCC)cc5C4=C3C(=O)N1C=C2`: the photoluminescence quantum yield is, setting by setting: (in CN(C)C=O) 0.7; (in ClC(Cl)Cl) 0.8.

Regarding `Oc1ccc(-c2cccs2)cc1-c1nc2ccccc2s1`, the photoluminescence quantum yield is, setting by setting: (in CCO) 0.0473; (in ClCCl) 0.0242.

As to `CC(C)(C)NS(=O)(=O)c1ccc2c(c1)C(=O)/C(=C1\Sc3ccc(S(=O)(=O)NC(C)(C)C)cc3C1=O)S2`, the photoluminescence quantum yield is 0.611 (in C1COCCO1), 0.352 (in CN(C)C=O) and 0.009 (in CS(C)=O).

`Oc1ccccc1-c1nc(-c2ccccc2)c2ccccn12` yielded a photoluminescence quantum yield (in ClCCl) of 0.144.

For the compound `C[Si]1(c2ccccc2)C(c2ccc3c(c2)c2ccccc2n3-c2ccccc2)=C(c2ccccc2)C(c2ccccc2)=C1c1ccc2c(c1)c1ccccc1n2-c1ccccc1`, the photoluminescence quantum yield (in C1CCOC1) is 0.04.

Regarding `CCOC(=O)COc1ccc(/C=C/C2=C3C(C)=CC(C)=[N+]3[B-](F)(F)n3c2c2ccccc2c3-c2[nH]c(C)cc2C)cc1`, the photoluminescence quantum yield (in ClCCl) turned out to be 0.01.

For `CB1C=Cc2ccc3ccccc3c2N1c1ccccc1`, the photoluminescence quantum yield (in C1CCCCC1) was determined as 0.04.

Compound `c1ccc(-c2cc(-c3ccc(-c4nc(-c5ccccn5)c(-c5ccccn5)[nH]4)cc3)cc(-c3ccccn3)n2)nc1` showed a photoluminescence quantum yield (in C1CCOC1) of 0.06; a photoluminescence quantum yield (in CC#N) of 0.08; a photoluminescence quantum yield (in CC(C)=O) of 0.201; a photoluminescence quantum yield (in CCCCCC) of 0.006; a photoluminescence quantum yield (in CCO) of 0.202; a photoluminescence quantum yield (in CCOC(C)=O) of 0.153. The photoluminescence quantum yield worked out at 0.135 (in CN(C)C=O); 0.078 (in CO); 0.111 (in CS(C)=O); 0.13 (in ClC(Cl)Cl); 0.145 (in ClCCl); 0.045 (in O).

`CC1(C)c2ccccc2N(c2cc3c4ccccc4n4c5ccccc5c(c2)c34)c2ccccc21` showed a photoluminescence quantum yield under setting [1] of 0.95.
